Measured values as given in paper PMC2719696, “Kinetics and Cellular Site of Glycolipid Loading Control the Outcome of Natural Killer T Cell Activation” (Immunity, 2009).

System: splenocytes
Assay: MβCD treatment of glycolipid-pulsed DCs, stimulation of autologous splenocytes in vitro
Assay type: cell-based, C57BL/6 mice
Conditions: DCs pulsed 18 hr, 10 mM MβCD 15 min, 24 hr culture
Experimental: Figure 7 Functional Consequences of Membrane Lipid Raft Association of Glycolipid-Loaded CD1d Molecules (A) C57BL/6 BMDCs were pulsed for 18 hr with the indicated glycolipids, washed, and incubated for 15 min in medium alone (hatched bars) or medium containing 10 mM MβCD (solid bars). Cells were then fixed (1% paraformaldehyde) and used for stimulating autologous splenocytes for 24 hr, after which supernatant concentrations of IFN-γ and IL-4 were measured. Dotted lines indicate the background levels of cytokines in cultures with BMDC pulsed with vehicle only. Means and standard deviations for triplicate cultures are shown, and results are representative of three experiments. ^∗∗p < 0.01 (ANOVA, Bonferroni post-test). (B) Effect of MβCD on in vivo presentation of αGalCer analogs. Splenic DCs were pulsed ex vivo with the indicated glycolipids for 18 hr and then incubated for 15 min in medium without (−, hatched bars) or with 10 mM MβCD (+, solid bars). After extensive washing, the cells were injected i.p. into naive C57BL/6 mice (10^6 cells/mouse). Serum was assayed for IL-4 at 2 hr and for IFN-γ at 24 hr postinjection. Data shown are means and standard deviations for pooled data from two experiments that had three mice per group. ^∗∗p < 0.01 (ANOVA, Bonferroni post-test); NS, not significant (p > 0.05).
For in vitro stimulation, murine iNKT hybridomas at 5 × 10^4 cells/well in 96-well plates were stimulated with an equal number of either JAWS II cells or transfected A20 cells in complete medium with glycolipids for 12 hr at 37°C, and levels of murine IL-2 secretion were determined. For some experiments, APCs were preincubated with glycolipids for 12 hr or fixed with paraformaldehyde (1% for 2 min at RT) prior to the addition of iNKT cell hybridomas. For in vitro stimulation of murine splenic iNKT cells, splenocytes from BALB/c or C57BL/6 mice were plated at 5 × 10^5 cells per well in complete medium in 96-well plates and stimulated with glycolipids for 48 hr at 37°C. Subsequently the levels of IL-4, IL-13, and IFN-γ in culture supernatants were quantified by capture ELISA. For assays with methyl-β-cyclodextrin (MβCD) treatment of APCs, we prepared splenic DCs with a CD11c^+ cell isolation kit from Miltenyi Biotech from mice that had been injected s.c. 14 days previously with 10^5 Flt3-ligand-secreting B16 melanoma cells to increase the yield ([Mach et al., 2000]). Purified CD11c^+ cells were cultured in complete medium for 18 hr with glycolipids (100 nM) as indicated, washed, and incubated at 37°C for 15 min in medium with or without 10 mM MβCD (Sigma-Aldrich) and subsequently fixed (1% paraformaldehyde) and cultured in 96-well plates at 2 × 10^5 cells/well with autologous splenocytes (4 × 10^5 cells per well). […]

| Structure (SMILES) | effect of MβCD treatment of pulsed DCs on stimulation of IFN-γ production by splenocytes | effect of MβCD treatment of pulsed DCs on stimulation of IL-4 |
| --- | --- | --- |
| CCCCCCCCCCCCCCCCCCCCCCCCCC(=O)NC(COC1OC(CO)C(O)C(O)C1O)C(O)C(O)CCCCCCCCCCCCCC (stereo not shown) [αGalCer-C26:0, reference compound] | markedly reduced | no effect |
| CCCCCCCCCCCCCCC(O)C(O)C(COC1OC(CO)C(O)C(O)C1O)NC(=O)CCCCCCCCC (stereo not shown) [αGalCer-C10:0] | unaffected by MβCD |  |
| CCCCCC=CCC=CCCCCCCCCCC(=O)NC(COC1OC(CO)C(O)C(O)C1O)C(O)C(O)CCCCCCCCCCCCCC (stereo not shown) [αGalCer-C20:2] | unaffected by MβCD |  |
